This passage reports mass density, speed of sound and refractive index results from the NIST ThermoML archive (doi:10.1021/je0302147).

The conditions of data set [1]: 298.15 K, 101.33 kPa, Liquid; for speed of sound: Sing-around technique in a fixed-path interferometer.
The nature of data set [2]: refractive index (Na D-line) (dimensionless). The following applies: 298.15 K, 101.33 kPa, Liquid.

SMILES strings stand for the structures. Numbers after ± are expanded uncertainties.

Take `CCCCCCCC[n+]1ccn(C)c1.[Cl-]` [1-methyl-3-octylimidazolium chloride]: in data set [1], the mass density (in general, the mass of a sample divided by its volume) stood at 1007 ± 1.6 kg/m3 and the speed of sound (in general, how fast a sound wave travels through the sample) came to 1382 ± 4 m/s. Moreover, the refractive index – broadly, the speed of light in vacuum divided by its phase velocity in the sample – in data set [2] (Standard Abbe refractometry) turned out to be 1.5058 ± 0.00069.
Regarding `CCOC(C)(C)CC` [1,1-dimethylpropyl ethyl ether], the speed of sound in data set [1] stood at 1096 ± 2 m/s. Further, in data set [1] (Vibrating tube method), the mass density is 760.5 kg/m3. Also, the refractive index in data set [2] came to 1.38857.
Regarding `CCO` [ethanol], the speed of sound in data set [1] came out at 1143 ± 2 m/s. Further, in data set [1] (Vibrating tube method), the mass density is given as 785.22 kg/m3. Further, the refractive index in data set [2] came to 1.3592.
